Tests used:
[1] = tested on: L1210/PDD; test: antitumor activity in mice implanted with a tumor cell line resistant to cisDDP (Table III); assay type: in vivo; conditions: q4d × 4
[2] = tested on: L1210/0; test: antitumor activity in mice implanted intraperitoneally with L1210 (Table II); assay type: in vivo; parameters: Mean: unit not given beside the values; conditions: d 1, 5, 9, 13
Procedure: The optimal dose is 15 mg/kg giving a %ILS of 51% versus control mice implanted with L1210 but not treated with the drug.

N.N.[Cl][Pt][Cl] [CisDDP, cis-diamminedichloroplatinum (II)]
ILS ([1]; dose 2.0): 0% | Mean ([1]; dose 2.0): 11.0 | ILS ([1]; dose 3.0): 0% | Mean ([1]; dose 3.0): 10.8 | ILS ([1]; dose 4.5): 0% | Mean ([1]; dose 4.5): 11.0 | ILS ([2]; first L1210/0 group, dose 3): 34% | Mean ([2]; first L1210/0 group, dose 3): 11.9 | ILS ([2]; second L1210/0 group, dose 2.0): 26% | Mean ([2]; second L1210/0 group, dose 2.0): 11.6 | ILS ([2]; second L1210/0 group, dose 3.0): 51% | Mean ([2]; second L1210/0 group, dose 3.0): 13.9 | ILS ([2]; second L1210/0 group, dose 4.5): 113% | Mean ([2]; second L1210/0 group, dose 4.5): 19.6

Reference: patent publication US4843161A, “Platinum-intercalative complexes for the treatment of cancer” (Massachusetts Institute of Technology, priority 1984, dated 1989)
